# Reference: patent US20230149400A1, “METHODS AND COMPOSITIONSFOR TREATING VIRAL INFECTIONS” (ACLARIS THERAPEUTICS, INC., priority 2020, published 2023)
# Like-named read-outs stand apart in the source and are kept apart here.
# How the values were obtained:
# [1] = system: lipopolysaccharide (TLR4)-stimulated cytokines and chemokines; test: Ex vivo LPS (TLR4)-stimulated cytokine/chemokine production in whole blood of subjects given oral ATI-450; set-up: species or system human; conditions: for inhibition at 50 mg: Homo sapiens, po, both cohorts (100 mg once daily; 50 mg twice daily), compared to placebo
# Protocol: Data were collected following stimulation by a lipopolysaccharide (LPS) at a single time point (5 hours) in each isolated ex vivo human whole blood sample collected. […]. Cytokines evaluated include: IL-1b, IL-1RA, IL-2, IL-7, IL-8, IL-9, IL-10, basic FGF, GCSF, GMCSF, IFNγ, IP-10, MCP-1, MIP-1α, MIP-1β, PDGF, TNFα, and VEGF.
# [2] = test subjects
# [3] = system: lung polymorphonuclear neutrophils (PMN); test: Rat model of pulmonary inflammation (LPS aerosol), lung lavage PMN count; conditions: oral 1 mg/kg or 10 mg/kg, 4 hours after LPS exposure, versus vehicle
# Protocol: One hour after administration, animals were placed in an aerosol chamber containing 60 μg/mL lipopolysaccharide (LPS) for 40 minutes and then removed to room air. Four hours after LPS exposure, lungs of the animals were lavaged with cold D-PBS/EDTA solution and the total number of polymorphonuclear neutrophils (PMN) in the solution were counted as an indicator of the inflammatory response.
# [4] = Cohort 1 (SAD), 100 mg ATI-450 once daily
# [5] = Cohort 2 (MAD), 50 mg ATI-450 twice daily
compound,measurement,setting,value
"Cc1cnc(-c2ccnc(C(C)(C)O)n2)cc1-n1c(C)cc(OCc2ncc(F)cc2F)c(Cl)c1=O (single isomer, unassigned) [ATI-450, 3-chloro-4-((3,5-difluoropyridin-2-yl)methoxy)-2′-(2-(2-hydroxypropan-2-yl)pyrimidin-4-yl)-5′,6-dimethyl-2H-[1,4′-bipyridin]-2-one]","LPS-stimulated IL-6, IL-8, MIP-1β, G-CSF, IL-1RA, IP-10, and MCP-1 levels",[1]; 50 mg ATI-450 twice daily,reduction
same,"LPS-stimulated IL-6, IL-8, and MIP-1β release",[1]; 100 mg ATI-450 once daily,reduction
same,GCSF Not Stimulated,[1]; [4],25.01 pg/mL
same,GCSF Stimulated,[1]; [4],232.34 pg/mL
same,GMCSF Not Stimulated,[1]; [4],0.46 pg/mL
same,GMCSF Stimulated,[1]; [4],25.12 pg/mL
same,IFNγ Not Stimulated,[1]; [4],12.54 pg/mL
same,IFNγ Stimulated,[1]; [4],57.72 pg/mL
same,IL-1RA Not Stimulated,[1]; [4],974.42 pg/mL
same,IL-1RA Stimulated,[1]; [4],7169.95 pg/mL
same,IL-1β Not Stimulated,[1]; [4],1.86 pg/mL
same,IL-1β Stimulated,[1]; [4],776.88 pg/mL
same,IL-2 Not Stimulated,[1]; [4],0.65 pg/mL
same,IL-2 Stimulated,[1]; [4],30.06 pg/mL
same,IL-6 Not Stimulated,[1]; [4],15.28 pg/mL
same,IL-6 Stimulated,[1]; [4],8700.41 pg/mL
same,IL-7 Not Stimulated,[1]; [4],8.79 pg/mL
same,IL-7 Stimulated,[1]; [4],8.04 pg/mL
same,IL-8 Not Stimulated,[1]; [4],1564.00 pg/mL
same,IL-8 Stimulated,[1]; [4],24421.33 pg/mL
same,IL-9 Not Stimulated,[1]; [4],0.00 pg/mL
same,IL-9 Stimulated,[1]; [4],0.00 pg/mL
same,IL-10 Not Stimulated,[1]; [4],22.57 pg/mL
same,IL-10 Stimulated,[1]; [4],752.46 pg/mL
same,IP-10 Not Stimulated,[1]; [4],288.07 pg/mL
same,IP-10 Stimulated,[1]; [4],1487.58 pg/mL
same,MCP-1 Not Stimulated,[1]; [4],1026.37 pg/mL
same,MCP-1 Stimulated,[1]; [4],1215.21 pg/mL
same,MIP-1α Not Stimulated,[1]; [4],105.22 pg/mL
same,MIP-1α Stimulated,[1]; [4],32722.63 pg/mL
same,MIP-1β Not Stimulated,[1]; [4],504.74 pg/mL
same,MIP-1β Stimulated,[1]; [4],49549.56 pg/mL
same,TNFα Not Stimulated,[1]; [4],8.57 pg/mL
same,TNFα Stimulated,[1]; [4],5270.06 pg/mL
same,VEGF Not Stimulated,[1]; [4],186.34 pg/mL
same,VEGF Stimulated,[1]; [4],231.92 pg/mL
same,bFGF Not Stimulated,[1]; [4],29.69 pg/mL
same,bFGF Stimulated,[1]; [4],28.63 pg/mL
same,inhibition of LPS-stimulated IL-1RA,[1]; Cohort 1 and Cohort 2,about 30%
same,inhibition of LPS-stimulated IL-10,[1]; Cohort 1 and Cohort 2,about 30%
same,GCSF Not Stimulated,[1]; [5],16.33 pg/mL
same,GCSF Stimulated,[1]; [5],292.44 pg/mL
same,GMCSF Not Stimulated,[1]; [5],0.21 pg/mL
same,GMCSF Stimulated,[1]; [5],19.15 pg/mL
same,IFNγ Not Stimulated,[1]; [5],33.45 pg/mL
same,IFNγ Stimulated,[1]; [5],57.81 pg/mL
same,IL-1RA Not Stimulated,[1]; [5],893.81 pg/mL
same,IL-1RA Stimulated,[1]; [5],13830.24 pg/mL
same,IL-1β Not Stimulated,[1]; [5],2.25 pg/mL
same,IL-1β Stimulated,[1]; [5],381.38 pg/mL
same,IL-2 Not Stimulated,[1]; [5],2.86 pg/mL
same,IL-2 Stimulated,[1]; [5],14.18 pg/mL
same,IL-6 Not Stimulated,[1]; [5],5.70 pg/mL
same,IL-6 Stimulated,[1]; [5],9359.59 pg/mL
same,IL-7 Not Stimulated,[1]; [5],7.40 pg/mL
same,IL-7 Stimulated,[1]; [5],6.87 pg/mL
same,IL-8 Stimulated,[1]; [5],30259.47 pg/mL
same,IL-9 Not Stimulated,[1]; [5],3.10 pg/mL
same,IL-9 Stimulated,[1]; [5],2.77 pg/mL
same,IL-10 Not Stimulated,[1]; [5],2.05 pg/mL
same,IL-10 Stimulated,[1]; [5],108.90 pg/mL
same,IP-10 Not Stimulated,[1]; [5],474.58 pg/mL
same,IP-10 Stimulated,[1]; [5],1513.02 pg/mL
same,MCP-1 Not Stimulated,[1]; [5],728.09 pg/mL
same,MCP-1 Stimulated,[1]; [5],1124.80 pg/mL
same,MIP-1α Not Stimulated,[1]; [5],193.51 pg/mL
same,MIP-1α Stimulated,[1]; [5],38207.05 pg/mL
same,MIP-1β Not Stimulated,[1]; [5],806.79 pg/mL
same,MIP-1β Stimulated,[1]; [5],89906.73 pg/mL
same,TNFα Not Stimulated,[1]; [5],13.44 pg/mL
same,TNFα Stimulated,[1]; [5],6402.98 pg/mL
same,VEGF Not Stimulated,[1]; [5],202.39 pg/mL
same,VEGF Stimulated,[1]; [5],191.77 pg/mL
same,bFGF Not Stimulated,[1]; [5],25.04 pg/mL
same,bFGF Stimulated,[1]; [5],24.50 pg/mL
same,inhibition at 50 mg,[1]; read-out: inhibition of LPS-stimulated GM-CSF,≥ 70%
same,inhibition at 50 mg,[1]; read-out: inhibition of LPS-stimulated IFNγ,≥ 70%
same,inhibition at 50 mg,[1]; read-out: inhibition of LPS-stimulated IL-2,≥ 70%
same,inhibition at 50 mg,[1]; read-out: inhibition of LPS-stimulated MIP-1α,≥ 70%
same,tolerability,[2],well tolerated
same,total lung PMNs,[3],significantly reduced
